Experimental data: patent US10513529B2, “1,2,4-triazolo-[3,4-b]-1,3,4-thiadiazole derivatives” (GALENICA S.A., priority 2016, dated 2019)

Experiments:
[1] = tested on: SKOV-3 human ovarian cancer cell line; test: MTT cytostatic-cytotoxic activity, SKOV-3; format: cell-based; settings: for GI50 / IC50: Homo sapiens, SK-OV-3, SKOV-3, 48 h treatment; for IC50: kills 50% of the cells; for TGI: SKOV-3, 48 h treatment
Method: SKOV-3 (SKOV-3) (ATCC HTB 77) and OVCAR-3 (ATCC® HTB-161™)
Human ovarian adenocarcinoma cells, which are grown easily in monolayer culture with epithelial-like morphology. SKOV-3 are resistant to tumor necrosis factor (TNF) and to other cytotoxic drugs such as cisplatin, and adriamycin, while OVCAR-3 are resistant to adriamycin, cisplatin and melphalan. These cell lines express androgens, estrogens and progesterone receptors. When SKOV-3 or OVCAR-3 cells are subcutaneously implanted in nude mice, SCID mice, a moderately differentiated tumor develops, and the resulting model resembles primary ovarian adenocarcinoma in humans.
(§1) All cancer cell lines are stored in a liquid nitrogen tank in 2.5 ml cryovials (Corning-Costar, Cambridge, Mass.). DMSO (dimethylsulfoxide) act as a cryoprotectant and is added to prevent the formation of ice crystals which may lyse the cells. The Cells were grown as monolayer cultures in T-75 flasks (Corning-Costar, Cambridge, Mass.) and maintained at 37° C. in 5% CO2 incubator & 100% relative humidity. The cultures medium used are McCoy's 5a Medium, supplemented with 10% fetal bovine serum (FBS, Gibco) and 1% antibiotics (100 IU/ml penicillin/100 µg/ml streptomycin), sterilized by filtration (Corning-Costar filter, diameter 0.2 μm, RPMI-1640 and 50% RPMI-1640 (Catalog No 30-2001) plus 50% Mammary Epithelial Growth Medium (MEGM), supplemented with 10% fetal bovine serum (FBS, Gibco) and 1% antibiotics (100 IU/ml penicillin/100 μg/ml streptomycin). The passage is performed every 3-4 to days as follows: Cells are washed with sterile PBS (Phosphate buffered saline): 8 g/l NaCl, 0,2 g/l KCl, 1,15 g/l Na2HPO4καl 0,2 g/l KH2PO4. pH:7,4), add 2-3 ml 0.05% trypsin (Gibco 1:250) and 0.02% EDTA to cover the monolayer and incubate the flask at 3TC for 5-10 minutes. Trypsin-EDTA, is used mainly to detach the cells from the flask and prepare a single cell suspension. Finally, the number of cells can be determined by direct counting using a Neubauer chamber and cell viability is determined by staining the cells with trypan blue.
(§2) In the experimental study the in vitro effect of the compound type (I) was evaluated against ovarian cancer cell lines UWB1.289, UWB1.289+BRCA1 Kai SKOV-3.The cells were plated in 96-well plate (MTP) at a density of 1×10^4cells/m1 per well and maintained for 72 h at 3TC in a 5% CO2 incubator and grown as monolayers. The selection of the initial number of cells was made according to the rate of proliferation of the cell line, in order the cells throughout the experiment are in an exponential (log) growth phase. After 24 hours, cells were treated with 1-100 μmol/l of the tested compounds for 48 h. Experiments were carried out using triplicate wells. The viability of cultured cells was estimated by an (3-(4,5-imethylthiazol-2-yl)-2,5-diphenyltetrazolium bromide (MTT) metabolic assay as described previously (Finlay G J, Wilson W R and Baguley B C: Comparison of in vitro activity of cytotoxic drugs towards human carcinoma and leukaemia cell lines. Eur J Cancer Clin Oncol 22: 655-662, 1986; Alley M C, Scudiero D A, Monks A, Hursey M L, Czerwinski M J, Fine D L, et al. Feasibility of drug screening with panels of human tumor cell lines using a microculture tetrazolium assay. Cancer Res 1988; 48:589-601). MTT (Sigma, St Louis, Mo., USA) was dissolved in PBS in a concentration of 5 mg/ml, filter sterilized, and stored at 4° C. MTT (50 μl of stock solution) was added to each culture and incubated for 3 h at 3TC to allow metabolization. Formazan crystals were solubilized by DMSO (100 μl). Absorbance of the converted dye was measured at a wavelength of 540nm on ELISA reader (BioTek, Winooski, Vt., USA).
(§3) GI50: The mean concentration that causes 50% inhibition of cell growth (Growth Inhibition 50%). The calculation of the value is based on the formula: (Tt72x)−(Ct24)/(Ct72)-(Ct24)×100=50
TGI: The mean concentration that causes 100% inhibition of cell growth (Total Growth Inhibition). […]

[2] = tested on: UWB1.289 human ovarian cancer cell line (mutant BRCA1); test: MTT cytostatic-cytotoxic activity, UWB1.289; format: cell-based; settings: for GI50 / IC50: Homo sapiens; for GI50: UWB1289, 48 h; for GI50 / TGI: UWB1.289, 48 h treatment; for IC50: UWB1289, UWB1.289, 48 h treatment, kills 50% of the cells
Method: Also, UWB1.289 cells have mutated the p53 tumor suppressor gene and positive Wilms' tumor protein (WT) expression, have no functional BRCA1 gene and are positive for the expression of cytokeratin 7 (CK-7), calretinin and Wilms' tumor protein (WT). Finally they are sensitive to ionizing radiation.
as §1, §2, §3
TGI: The mean concentration that causes 100% inhibition of cell growth (Total Growth Inhibition). The value is calculated according to the formula: (Tt72x)−(Ct24)/(Ct72)−(Ct24)×100=0
IC50: The mean concentration that kills 50% of the cells (Inhibition Concentration 50%). The value is calculated according to the formula: (Tt72x)−(Ct24)/(Ct24)×100=[…]

[3] = tested on: MCF-7 human breast cancer cell line; test: MTT cytostatic-cytotoxic activity, MCF-7; format: cell-based; settings: for GI50 / IC50: Homo sapiens; for GI50: MCF7, 48 h; for GI50 / TGI: MCF-7, 48 h treatment; for IC50: MCF7, MCF-7, 48 h treatment, kills 50% of the cells
[4] = tested on: PC-3 human hormone-resistant prostate cancer cell line; test: MTT cytostatic-cytotoxic activity, PC-3; format: cell-based; settings: PC-3, 48 h treatment; for GI50 / IC50: Homo sapiens; for IC50: kills 50% of the cells
[5] = tested on: A-549 human lung carcinoma cell line; test: MTT cytostatic-cytotoxic activity, A-549; format: cell-based; settings: for TGI: A-549, 48 h treatment; for GI50 / IC50: Homo sapiens, A549, A-549, 48 h treatment; for IC50: kills 50% of the cells
[6] = in vivo; settings: both sexes, mouse, in vivo, ip; C57BI/6 mice, acute toxicity
Method: (§4) The acute toxicity of the compounds was assessed from lethality by testing different concentrations, starting at 100mg/kg. […] For intraperitoneal (i.p.) treatment, stock solutions of the tested compounds were prepared immediately before use. They were suspended in corn oil in the desired concentration following initial dissolution in 10% dimethylsulfoxide (DMSO). C57BI/6 male and female were used for toxicity studies. Mice were kept under conditions of constant temperature and humidity in sterile cages with water and food.

[7] = tested on: C57BI/6 mice; test: in vivo; settings: i.p., acute toxicity
Method: as §4

Compound | GI50 [1] | IC50 [1] | TGI [1] | GI50 [2] | IC50 [2] | TGI [2] | GI50 [3] | IC50 [3] | TGI [3] | GI50 [4] | IC50 [4] | TGI [4] | TGI [5] | GI50 [5] | IC50 [5] | LD50 [6] | LD10 [7] | LD50 [7]
COc1cc(Cc2nnc3sc(-c4ccc(Cl)cc4)nn23)c(S(=O)(=O)N(C)C)cc1OC [TS63, 3-[2-(N,N-dimethylsulfamoyl)-4,5-dimethoxybenzyl]-6-(4-chlorophenyl)-1,2,4-triazolo[3,4-b]-1,3,4-thiazole] | 8 µM | > 100 µM | 38 µM | 30 µM | > 100 µM | 50 µM | 22 µM | > 100 µM | 50 µM | 20 µM | > 100 µM | 45 µM | 36 µM | 14 µM | 92 µM | 430 mg/kg | >500 mg/kg | –
COc1cc(Cc2nnc3sc(Cc4ccccc4)nn23)c(S(=O)(=O)N(C)C)cc1OC [TS62, 3-[2-(N,N-dimethylsulfamoyl)-4,5-dimethoxybenzyl]-6-benzyl-1,2,4-triazolo[3,4-b]-1,3,4-thiazole] | 12 µM | > 100 µM | 56 µM | 13 µM | > 100 µM | >100 µM | 18 µM | > 100 µM | >100 µM | 27 µM | > 100 µM | >100 µM | 71 µM | 15 µM | > 100 µM | 480 mg/kg | >500 mg/kg | –
COc1cc(Cc2nnc3sc(-c4ccccc4)nn23)c(S(=O)(=O)N(C)C)cc1OC [TS167, 3-[2-(N,N-dimethylsulfamoyI)-4,5-dimethoxy-benzyl]-6-phenyl-1,2,4-triazolo[3,4-b]-1,3,4-thiazole] | 80 µM | > 100 µM | >100 µM | 56 µM | > 100 µM | >100 µM | 65 µM | > 100 µM | >100 µM | 62 µM | > 100 µM | >100 µM | >100 µM | 74 µM | > 100 µM | > 500 mg/kg | >500 mg/kg | >500 mg/kg
COc1cc(Cc2nnc3sc(/C=C/c4ccc(Cl)cc4)nn23)c(S(=O)(=O)N(C)C)cc1OC [TS26, 3-[2-(N,N-dimethylsulfamoyl)-4,5-dimethoxybenzyl]-6-(E)-4-chlorostyryl-1,2,4-triazolo[3,4-b]-1,3,4-thiazole] | 38 µM | > 100 µM | 72 µM | 8 µM | 72 µM | 21 µM | 25 µM | > 100 µM | 67 µM | 19 µM | 86 µM | 47 µM | 90 µM | 20 µM | > 100 µM | 365 mg/kg | >500 mg/kg | –
COc1cc(Cc2nnc3sc(/C=C/c4ccc(F)cc4)nn23)c(S(=O)(=O)N(C)C)cc1OC [TS25, 3-[2-(N,N-dimethylsulfamoyl)-4,5-dimethoxybenzyl]-6-(E)-4-fluorostyryl-1,2,4-triazolo[3,4-b]-1,3,4-thiazole] | 18 µM | 80 µM | 52 µM | 2 µM | 60 µM | 4 µM | 16 µM | 86 µM | 51 µM | 8 µM | 69 µM | 24 µM | 56 µM | 11 µM | 87 µM | 345 mg/kg | >500 mg/kg | –
COc1cc(Cc2nnc3sc(-c4ccc(N)cc4)nn23)c(S(=O)(=O)N(C)C)cc1OC [TS71, 3-[2-(N,N-dimethylsulfamoyl)-4,5-dimethoxybenzyl]-6-(4-aminophenyl)-1,2,4-triazolo[3,4-b]-1,3,4-thiazole] | > 100 µM | > 100 µM | >100 µM | > 100 µM | > 100 µM | >100 µM | > 100 µM | > 100 µM | >100 µM | > 100 µM | > 100 µM | >100 µM | >100 µM | > 100 µM | > 100 µM | > 500 mg/kg | >500 mg/kg | >500 mg/kg
COc1ccc(Cc2nn3c(Cc4cc(OC)c(OC)cc4S(=O)(=O)N(C)C)nnc3s2)cc1 [TS50, 3-[2-(N,N-dimethylsulfamoyl)-4,5-dimethoxybenzyl]-6-(4-methoxybenzyl)-1,2,4-triazolo[3,4-b]-1,3,4-thiazole] | 6 µM | > 100 µM | >100 µM | 30 µM | > 100 µM | >100 µM | 40 µM | > 100 µM | >100 µM | 44 µM | > 100 µM | >100 µM | >100 µM | 35 µM | > 100 µM | > 500 mg/kg | >500 mg/kg | >500 mg/kg
